Among the data in US10864211B2, “Hydroxy isoxazole compounds useful as GPR120 agonists” (Merck Sharp & Dohme Corp., priority 2016, dated 2020) are EC50 values, retold here.

Structures can show the parent of a compound that is named as a salt.

The assay deals with T1, human GPR120 (Homo sapiens, UniProt Q5NUL3).
T1 construct: expressed in transfected cells; host or cells: CHO-K1
T1 sequence (Q5NUL3 1-361): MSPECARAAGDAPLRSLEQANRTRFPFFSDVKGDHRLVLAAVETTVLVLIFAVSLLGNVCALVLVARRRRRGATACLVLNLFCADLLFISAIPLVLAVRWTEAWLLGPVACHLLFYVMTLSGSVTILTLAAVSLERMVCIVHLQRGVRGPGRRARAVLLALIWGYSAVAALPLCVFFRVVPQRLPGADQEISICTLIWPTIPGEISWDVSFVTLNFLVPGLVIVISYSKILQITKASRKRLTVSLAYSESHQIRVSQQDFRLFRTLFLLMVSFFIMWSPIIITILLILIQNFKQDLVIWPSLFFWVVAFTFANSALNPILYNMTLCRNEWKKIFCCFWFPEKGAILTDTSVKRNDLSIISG
In words: Human GPR120 IP1 assay (inositol phosphate turnover). It counts as cell-based. The conditions noted are these: IP1 accumulation in CHO-K1 cells stably expressing the short form of human GPR120. The text has this:
The binding of small molecule agonists to the G-protein-coupled receptor GPR120 activates phospholipase C, and leads to the generation of inositol 1,4,5-trisphosphate (InsP3 or IP3). IP3 is subsequently de-phosphorylated to IP1, which accumulates in cells and is stable in the presence of lithium chloride.
In the present method, agonist-induced activation of the human and rat GPR120 receptor was monitored by measuring the accumulation of IP1 in CHO-K1 cells that were stably expressing the short form of human GPR120 (Accession #NM_001195755) or HEK293 cells stably expressing rat GPR120 (Accession #NM_001047088). Following agonist addition, GPR120 activation and subsequent accumulation of IP1 was measured using a homogeneous Time Resolved Fluorescence-based ELISA commercially available from CisBio (IP-one ELISA Kit). The IP-One ELISA was a competitive immunoassay which uses IP1 labeled with […] and a terbium cryptate-labeled anti-IP1 monoclonal antibody. […] The signal loss was then back calculated to IP1 concentration using an IP1 standard curve. Determination of IP1 concentration was a direct measure of GPR120 activation and was used to determine compound potency (EC50).
Human GPR120 stable cell-lines were generated in CHO cells. The expression plasmids were transfected using lipofectamine (Life Technologies) following manufacturer's instructions. Stable cell-lines were generated following drug selection and single cell cloning. Rat GPR120 stable cell-lines were generated in HEK cells using the Jump-In™ cell engineering platform (Life Technologies) following manufacturer's instructions. Stable cell-lines were generated following drug selection and single cell cloning.
The assay was performed in 384-well format. CHO cells stably expressing human GPR120 were plated at 20,000 cells per well in growth medium (DMEM/F12, 10% fetal calf serum). HEK293 cells stably expressing rat GPR120 were plated at […] per well in growth medium (DMEM, 10% fetal calf serum). Cell plates were then incubated 16 hours at 37 degrees in a 5% CO2 incubator. Measurement of Inositol Phosphate Turnover (IP1) was performed using the CisBio IP-One kit (Part number 62IPAPEB). After the 16 hour incubation, the growth media was removed by centrifugation using the BlueWasher (AusWasher GUI Ver. v1.0.1.8) Protocol #21-“Light Dry” and 10 μl of stimulation buffer (prepared as described in the kit) was added to each well. In a separate plate, compounds were diluted in DMSO (200-fold over the final concentration in the assay well) and 50 nl was acoustically transferred to the appropriate well in the assay cell plate. The plates were then incubated for 60 minutes at 37 degrees in a 5% CO2 incubator. 10 μl of detection buffer (also prepared as described in the IP-One kit) was added to each well and the plates were incubated at room temperature for 60 minutes in the dark. The plates were then read in a Perkin ElmerEnVision or equivalent reader able to measure FRET. Fluorescent ratio of emission at 665 and 620 nm was then converted to the IP1 concentration by back calculating from an IP1 standard curve prepared at the time of the assay. The data was normalized to % activity using a reference compound, and the EC50 values were determined using a standard 4-parameter fit.
Molecule `Oc1cc(-c2cnc(O[C@H]3C[C@H](c4ccc(C5CC(F)(F)C5)cc4)C3)cn2)on1` [Example 29, 5-[5-({trans-3-[4-(3,3-difluorocyclobutyl)phenyl]cyclobutyl}oxy)pyrazin-2-yl]isoxazol-3-ol] showed a half-maximal effective concentration (EC50) of 0.171 µM.
In turn, `Oc1cc(-c2cnc(O[C@H]3C[C@H](c4ccnc(OC5CC5)c4)C3)cn2)on1` [Example 33, sodium 5-[5-({trans-3-[2-(cyclopropyloxy)pyridin-4-yl]cyclobutyl}oxy)pyrazin-2-yl]isoxazol-3-olate] came in with an EC50 of 0.32 µM.
For `Oc1cc(-c2cnc(O[C@H]3C[C@@H](c4cccc5ccccc54)C3)cn2)on1` [Example 43, 5-{5-[(cis-3-naphthalen-1-ylcyclobutyl)oxy]pyrazin-2-yl}isoxazol-3-ol] the value was 0.13 µM; for `Oc1cc(-c2cnc(O[C@H]3C[C@@H](c4ccc(C(F)F)c(F)c4)C3)cn2)on1` [Example 1, 5-[5-({cis-3-[4-(difluoromethyl)-3-fluorophenyl]cyclobutyl}oxy)pyrazin-2-yl]isoxazol-3-ol], 0.0087 µM.
For `Oc1cc(-c2ccc(O[C@H]3C[C@@H](C4CCCCC4)C3)nc2)on1` [Example 37, 2-[(cis-3-cyclohexylcyclobutyl)oxy]-5-(3-hydroxyisoxazol-5-yl)pyridinium chloride] the value was 0.161 µM.
For `COc1cc(OC)cc([C@H]2C[C@@H](Oc3cnc(-c4cc(O)no4)cn3)C2)c1` [Example 54, ammonium 5-(5-{[cis-3-(3,5-dimethoxyphenyl)cyclobutyl]oxy}pyrazin-2-yl)isoxazol-3-olate], the EC50 was 0.099 µM.
Next, `Oc1cc(-c2cnc(O[C@H]3C[C@H](c4ccc(OC5CC5)cc4)C3)cn2)on1` [Example 60, 5-[5-({trans-3-[4-(cyclopropyloxyl)phenyl]cyclobutyl}oxy)pyrazin-2-yl]isoxazol-3-ol]: 0.013 µM.
Next, `Oc1cc(-c2ccc(O[C@H]3C[C@@H](OCc4cccc(C(F)(F)F)c4)C3)nc2)on1` [Example 74, 5-(3-hydroxyisoxazol-5-yl)-2-[(cis-3-{[3-(trifluoromethyl)benzyl]oxy}cyclobutyl)oxy]pyridinium trifluoroacetate]: 0.011 µM; `Oc1cc(-c2ccc(O[C@H]3C[C@@H](c4ccc(C(F)(F)F)cn4)C3)nc2)on1` [Example 24, 5-[6-({cis-3-[5-(trifloromethyl)pyridin-2-yl]cyclobutyl}oxy)pyridin-3-yl]isoxazol-3-ol]: 0.019 µM; `Oc1cc(-c2ccc(O[C@H]3C[C@H](c4ccnc(OC5CC5)c4)C3)nc2)on1` [Example 31, sodium 5-[6-({trans-3-[2-(cyclopropyloxy)pyridin-4-yl]cyclobutyl}oxy)pyridin-3-yl]isoxazol-3-olate]: 0.062 µM.
For `Oc1cc(-c2ccc(OC3CC(c4ccccc4)C3)nc2)on1` (stereo not drawn) [Example 36, 5-{6-[(3-phenylcyclobutyl)oxy]pyridin-3-yl}isoxazol-3-ol trifluoroacetate] the value was 0.041 µM; for `Oc1cc(-c2cnc(O[C@H]3C[C@@](F)(c4cc(C(F)(F)F)ccc4F)C3)cn2)on1` [Example 107, 5-[5-({trans-3-fluoro-3-[2-fluoro-5-(trifluoromethyl)phenyl]cyclobutyl}oxy)pyrazin-2-yl]isoxazol-3-ol], 0.215 µM.
With `Oc1cc(-c2cnc(O[C@H]3C[C@@](F)(c4ccc(Cl)cc4)C3)cn2)on1` [Example 108, 5-(5-{[trans-3-(4-chlorophenyl)-3-fluorocyclobutyl]oxy}pyrazin-2-yl)isoxazol-3-ol], the EC50 came to 0.014 µM.
For `Oc1cc(-c2cnc(O[C@H]3C[C@@H](c4ccc(-c5cnco5)cc4)C3)cn2)on1` [Example 16, 5-[5-({cis-3-[4-(1,3-oxazol-5-yl)phenyl]cyclobutyl}oxy)pyrazin-2-yl]isoxazol-3-ol] the value was 0.064 µM; for `Oc1cc(-c2cnc(O[C@H]3C[C@@H](c4ccc(OC(F)(F)F)cc4)C3)cn2)on1` [Example 56, 5-[5-({cis-3-[4-(trifluoromethoxy)phenyl]cyclobutyl}oxy)pyrazin-2-yl]isoxazol-3-ol], 0.049 µM; for `Oc1cc(-c2cnc(O[C@H]3C[C@@H](c4cc(F)cc(OC(F)(F)F)c4)C3)cn2)on1` [Example 3, ammonium 5-[5-({cis-3-[3-fluoro-5-(trifluoromethoxy)-phenyl]cyclobutyl}oxy)pyrazin-2-1]isoxazol-3-olate], 0.102 µM.
Next, `Cc1ccc([C@H]2C[C@@H](Oc3cnc(-c4cc(O)no4)cn3)C2)c(F)c1` [Example 46, 5-(5-{[cis-3-(2-fluoro-4-methylphenyl)cyclobutyl]oxy}pyrazin-2-yl)isoxazol-3-ol]: 0.036 µM.
`Oc1cc(-c2ccc(O[C@H]3C[C@@](F)(c4ccc(C(F)F)c(F)c4)C3)nc2)on1` [Example 103, 5-[6-({trans-3-[4-(difluoromethyl)-3-fluorophenyl]-3-fluorocyclobutyl}oxy)pyridin-3-yl)isoxazol-3-ol] had a concentration for a half-maximal effect (EC50) of 0.04 µM.
For `Cc1nc(C(F)(F)F)c(CO[C@H]2C[C@@H](Oc3ccc(-c4cc(O)no4)cn3)C2)s1` [Example 75, 5-(3-hydroxyisoxazol-5-yl)-2-[(cis-3-{[2-methyl-4-(trifluoromethyl)-1,3-thiazol-5-yl]methoxy}cyclobutyl)oxy] pyridinium trifluoroacetate] the value was 0.149 µM.
In the case of `Oc1cc(-c2cnc(O[C@H]3C[C@@H](c4ccc(OC5CC5)cc4)C3)cn2)on1` [Example 4, sodium 5-[5-({cis-3-[4-(cyclopropyloxy)phenyl]cyclobutyl}-oxy)pyrazin-2-yl]isoxazol-3-olate], a half-maximal response (EC50) required 0.083 µM.
For `CCOc1cc([C@]2(F)C[C@H](Oc3ccc(-c4cc(O)no4)cn3)C2)ccn1` [Example 98, Sodium 5-(6-{[trans-3-(2-ethoxypyridin-4-yl)-3-fluorocyclobutyl]oxy}pyridin-3-yl)isoxazol-3-olate] the value was 0.015 µM; for `Cc1cc(O[C@H]2C[C@@H](Oc3cnc(-c4cc(O)no4)cn3)C2)ccc1F` [Example 71, 5-(5-{[cis-3-(4-fluoro-3-methylphenoxy)cyclobutyl]oxy}pyrazin-2-yl)isoxazol-3-ol], 0.038 µM.
Regarding `Oc1cc(-c2cnc(OC3CC(OCC4CCCCC4)C3)cn2)on1` (mixture of isomers) [Example 80, 5-(5-{[cis-3-(cyclohexylmethoxy)cyclobutyl]oxy}pyrazin-2-yl)isoxazol-3-ol (mixture of isomers predominantly cis)], the EC50 turned out to be 0.023 µM.
Next, `Oc1cc(-c2cnc(O[C@H]3C[C@H](c4ccc(C(F)F)c(F)c4)C3)cn2)on1` [Example 2, 5-[5-({trans-3-[4-(difluoromethyl)-3-fluorophenyl]cyclobutyl}oxy)pyrazin-2-yl]isoxazol-3-ol]: 0.178 µM; `Oc1cc(-c2cnc(O[C@H]3C[C@@H](c4ccc(Cl)cc4)C3)cn2)on1` [Example 38, sodium 5-(5-{[cis-3-(4-chlorophenyl)cyclobutyl]oxy}pyrazin-2-yl)isoxazol-3-olate]: 0.017 µM; `Oc1cc(-c2cnc(O[C@H]3C[C@@H](c4ccc(C(F)(F)F)cc4)C3)cn2)on1` [Example 55, 5-[5-({cis-3-[4-(trifluoromethyl)phenyl]cyclobutyl}oxy)pyrazin-2-yl]isoxazol-3-ol]: 0.011 µM.
Next, `Oc1cc(-c2cnc(O[C@H]3C[C@@H](Oc4cccc(OC(F)(F)F)c4)C3)cn2)on1` [Example 68, 5-[5-({cis-3-[3-(trifluoromethoxy)phenoxy]cyclobutyl}oxy)pyrazin-2-yl]isoxazol-3-ol]: 0.052 µM.
